Test results as given in patent US20160319324A1, “MODULATORS OF GLYCEROPHOSPHODIESTER PHOSPHODIESTERASE PROTEINS” (THE JOHNS HOPKINS UNIVERSITY, priority 2013, published 2016).

Assays:
GDE3 = target: T1, GDE3 (Homo sapiens, UniProt Q9HCC8); experiment: validation and site of action of candidate drugs from fresh powder by western blot analysis and surface biotinylation assay; type: cell-based; conditions: for expression and localization of CNTFR and GDE3 / release of CNTFR into the medium: 10 μM in 0.1% DMSO, 24 hours treatment; for expression and localization of CNTFR and GDE3: western blot banding pattern and surface biotinylation; for release of CNTFR into the medium: HEK293T cells transfected with Luc-CNTFR and GDE3
T1 construct: expressed in transfected cells; host or cells: HEK293T
T1 sequence (Q9HCC8 1-539): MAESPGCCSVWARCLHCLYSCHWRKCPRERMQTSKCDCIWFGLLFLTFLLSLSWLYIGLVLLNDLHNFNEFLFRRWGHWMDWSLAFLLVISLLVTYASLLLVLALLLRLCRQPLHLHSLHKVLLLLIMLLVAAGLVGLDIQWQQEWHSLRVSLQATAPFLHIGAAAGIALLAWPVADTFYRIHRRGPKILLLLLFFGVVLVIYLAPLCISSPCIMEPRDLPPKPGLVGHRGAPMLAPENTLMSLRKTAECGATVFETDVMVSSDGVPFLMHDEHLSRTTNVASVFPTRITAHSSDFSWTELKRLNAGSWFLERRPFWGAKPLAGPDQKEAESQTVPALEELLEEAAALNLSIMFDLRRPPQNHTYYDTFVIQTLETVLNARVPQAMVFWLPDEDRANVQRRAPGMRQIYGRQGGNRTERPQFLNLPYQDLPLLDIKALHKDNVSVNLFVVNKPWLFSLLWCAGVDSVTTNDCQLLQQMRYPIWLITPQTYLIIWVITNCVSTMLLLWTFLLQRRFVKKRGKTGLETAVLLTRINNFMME
Procedure: FIG. 10. Validation and identification of the site of action of candidate drugs. Drugs hit by a high-throughput screening were prepared from the fresh powders and their activity was tested by established western blot analysis. […] Concentration of drugs=10 μM.
HEK293T cells were cultured in DMEM with 10% FBS on polyethyleneimine (PEI)-coated 12 well plates and transfected using Fugene6 agent (Roche). 24 hours after transfection, medium was changed to serum free DMEM and cells were incubated for an additional 24 hours. Medium and cell lysates were collected separately, and secretion and expression of proteins were analyzed by western blot and quantified using ImageJ (NIH). Antibodies used in Western analyses were rabbit-anti Jag1 (1:1000, Santa Cruz); rabbit anti-CRD (1:250, gift from Paul Englund) and mouse anti-myc (1.5 μg/ml for IP, DSHB) and as described.
Surface biotinylation assay was performed as previously described (29). Briefly, thirty hours after transfection of HEK293T cells with RECK/GDE and CreER constructs, cells were cooled on ice, washed twice with ice cold PBS++(1×PBS, 1 mM CaCl2, 0.5 mM MgCl2) and then incubated with PBS++ containing 1 mg/ml Sulfo-NHS-SSBiotin (Pierce) for 30 min at 4° C. Unreacted biotin was quenched by PBS++ containing 100 mM Glycine. Cultures were harvested in RIPA buffer, sonicated, and centrifuged at […] for 20 min at 4° C. The supernatant was rotated with Streptavidin beads (Pierce) for 2 hr at 4° C. Precipitates were washed with RIPA buffer three times and eluted with SDS gel loading buffer.
Currently, specific pharmacological modulators for GPI-AP cleavage have not been identified due to poor characterization of GPI-AP cleaving enzymes and the absence of an in vitro assay system. The robust GPI-AP cleaving activity of 6-TM GDEs has allowed the establishment of a luciferase-based, high throughput drug screening assay (signal to noise ratio=44.6; signal to background ratio=7.0; Z′ score=0.6: an excellent assay category). Measuring the GDE3-dependent release of GPI-anchored luciferase into the medium, the present inventors screened 3,360 compounds of the Johns Hopkins Drug library (JHDL), which contains FDA approved and phase II clinical trial drugs. The present inventors have selected common hits, which reduce or increase the release of luciferase activity into the medium more than 3 standard deviations of DMSO controls from duplicated experiments and identified 163 inhibitors (4.9%) and 138 activators (4.1%). Since the assay targets the whole GPI synthesis pathway as well as GPI cleaving activity, it is crucial to identify the site of action. Candidate drugs could modulate different steps of synthesis and cleavage of GPI-APs and will be categorized as follow: drugs activate or inhibit (i) the GPI biosynthesis machinery, (ii) glycosylation, (iii) surface expression of GPI-AP or GDE3, (iv) GPI cleaving activity of GDE, or (v) GPI cleaving-independent secretion of GPI-AP. Among 163 inhibitors, 23 drugs have been prepared from fresh powder stocks and their sites of action were tested by established western blot analyses and results are as follows: 10 drugs (no effect), 9 drugs (reducing surface expression and/or glycosylation of GPI-APs), and 4 drugs (inhibiting GPI-cleaving activity).
JHDL was used to screen drugs that affect the release of Luc-CNTFR into the medium. Drugs that increase or decrease the release index more than 3 SD of 16 DMSO controls of each plate were selected. Common hits of duplicated independent experiments were further analyzed. Among 3,360 drugs screened, we have identified 163 inhibitors and 138 activators. Among 163 inhibitors, 23 compounds were prepared from a fresh powder and their site of action was analyzed (10 μM in 0.1% DMSO, 24 hours treatment). To test whether drugs affect glycosylation and/or surface expression of CNTFR or GDE3, banding pattern of Western blot analysis and surface biotinylation assay were performed (FIG. 10). […]

[1] = target: Luc-CNTFR (firefly) [luciferase: P08659]; experiment: cell-based or functional assay
Luc-CNTFR (firefly) [luciferase: P08659], sequence (P08659 whole entry): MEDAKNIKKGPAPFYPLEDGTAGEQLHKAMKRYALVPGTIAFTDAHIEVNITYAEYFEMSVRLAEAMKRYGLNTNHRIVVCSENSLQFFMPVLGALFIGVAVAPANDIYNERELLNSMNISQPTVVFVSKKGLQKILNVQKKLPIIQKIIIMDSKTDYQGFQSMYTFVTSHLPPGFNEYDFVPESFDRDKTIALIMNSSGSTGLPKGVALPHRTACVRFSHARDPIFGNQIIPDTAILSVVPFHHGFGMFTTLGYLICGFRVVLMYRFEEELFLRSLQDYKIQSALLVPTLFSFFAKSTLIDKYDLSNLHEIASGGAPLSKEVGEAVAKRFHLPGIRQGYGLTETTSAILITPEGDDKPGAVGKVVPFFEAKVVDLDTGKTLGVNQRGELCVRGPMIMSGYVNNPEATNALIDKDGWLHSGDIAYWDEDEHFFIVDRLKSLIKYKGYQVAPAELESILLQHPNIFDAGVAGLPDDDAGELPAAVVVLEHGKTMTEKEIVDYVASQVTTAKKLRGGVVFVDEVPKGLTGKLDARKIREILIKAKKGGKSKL

[2] = Concentration of drugs=10 μM, western blot

| Compound | expression and localization of CNTFR and GDE3 (GDE3) | release of CNTFR into the medium (GDE3; western blot) | other results |
| --- | --- | --- | --- |
| CN1[C@@H]2CC[C@H]1C[C@@H](OC(c1ccccc1)c1ccccc1)C2 [benzotropine] |  |  | glycosylation pattern of CNTFR (GDE3; [2]): affect glycosylation pattern of CNTFR |
| CC[C@H]1OC(=O)[C@H](C)[C@@H](O[C@H]2C[C@@](C)(OC)[C@@H](O)[C@H](C)O2)[C@H](C)[C@@H](O[C@@H]2O[C@H](C)C[C@H](N(C)C)[C@H]2O)[C@](C)(O)C[C@@H](C)C(=O)[C@H](C)[C@@H](O)[C@]1(C)O [erythromycin] | without affecting expression and localization of CNTFR and GDE3 | inhibitor of the release of CNTFR | lysate level of CNTFR (GDE3; [2]): without affecting the lysate level; release of CNTFR into the medium (GDE3; western blot, listed as Erythromycin): inhibits the release of CNTFR |
| O=C(O)CCC(=O)c1ccc(-c2ccccc2)cc1 [fenbufen] |  | increase the release of CNTFR into the medium |  |
| COc1c(C)c2c(c(O)c1C/C=C(\C)CCC(=O)O)C(=O)OC2 [mycophenolic acid] |  |  | glycosylation pattern of CNTFR (GDE3; [2]): affect glycosylation pattern of CNTFR |
| CCCCCCCCC(=O)NCc1ccc(O)c(OC)c1 [nonivamide] | without affecting expression and localization of CNTFR and GDE3 | inhibitor of the release of CNTFR |  |
| COc1ccc(CN(CCN(C)C)c2ccccn2)cc1 [pyrilamine] |  | increase the release of CNTFR into the medium |  |
| N[C@@H](Cc1cc(I)c(Oc2cc(I)c(O)c(I)c2)c(I)c1)C(=O)O [thyroxine] | without affecting expression and localization of CNTFR and GDE3 | inhibitor of the release of CNTFR |  |
| GDE3 (enzyme) |  |  | release index (luciferase activity in the medium/cell lysate) [1]: 7 fold |
| vitamin B12 | without affecting expression and localization of CNTFR and GDE3 | inhibitor of the release of CNTFR |  |
